# Assay results taken from patent publication US4604239A, “Antibiotics” (Eli Lilly and Company, priority 1985, dated 1986).
# Read-outs that look alike come from different tables or passages of the source.
# What was measured:
# [1] = test system: Bacteroides melaninogenicus; assay: agar-dilution MIC; format: cell-based; conditions: Bacteroides melaninogenicus 2736; Table 14
# [2] = solubility; format: physicochemical
# [3] = test system: Hemophilus influenzae; assay: agar-dilution MIC; format: cell-based
# [4] = test system: Clostridium perfringens; format: cell-based; conditions: Clostridium perfringens 81; Table 14
# [5] = test system: Bacteroides thetaiotaomicron; format: cell-based
# Source text: (§1) The agar-dilution procedure described by the International Collaborative study (ICS) group was used to determine the minimum inhibitory concentrations (MIC's).
# [6] = test system: Peptostreptococcus intermedius; assay: agar-dilution MIC; format: cell-based
# [7] = test system: Clostridium septicum; assay: agar-dilution MIC; format: cell-based; conditions: Clostridium septicum 1128; Table 14
# [8] = test system: Staphylococcus aureus; assay: agar-dilution MIC; format: cell-based
# [9] = test system: Streptococcus sp. (Group D); assay: agar-dilution MIC; format: cell-based
# Source text: as §1
# [10] = test system: Streptococcus pyogenes; assay: agar-dilution MIC; format: cell-based; conditions: Streptococcus pyogenes C203; Table 17
# Source text: as §1
# [11] = test system: Staphylococcus epidermidis; assay: agar-dilution MIC; format: cell-based
# Source text: as §1
# [12] = test system: Streptococcus pneumoniae; assay: agar-dilution MIC; format: cell-based
# Source text: as §1
# [13] = test system: Bacteroides fragilis; assay: agar-dilution MIC; format: cell-based
# Source text: as §1
# [14] = test system: Peptococcus prevoti; assay: agar-dilution MIC; format: cell-based
# [15] = test system: Bacteroides vulgatis; assay: agar-dilution MIC; format: cell-based; conditions: Bacteroides vulgatis 1211; Table 14
# [16] = test system: S. pyogenes; assay: experimental bacterial infection in mice; format: in vivo
# [17] = test system: Staph. aureus; assay: experimental bacterial infection in mice; format: in vivo; conditions: two doses subcutaneously
# Method: All of the A41030 factors tested have shown in vivo antimicrobial activity against experimental bacterial infections. When two doses of test compound were administered subcutaneously to mice in illustrative infections, the activity observed is measured as an ED50 value [effective dose in mg./kg. to protect fifty percent of the test animals: See Warren Wick, et al., J. Bacteriol. 81, 233-235 (1961)].
# [18] = test system: Bacteroides corrodens; assay: agar-dilution MIC; format: cell-based; conditions: Bacteroides corrodens 1874; Table 14
# [19] = test system: Clostridium difficile; format: cell-based
# [20] = test system: Fusobacterium necrophorum; assay: agar-dilution MIC; format: cell-based; conditions: Fusobacterium necrophorum 6054A; Table 14
# [21] = test system: Peptococcus magnus; assay: agar-dilution MIC; format: cell-based; conditions: Pc. magnus 1477; Table 15
# Method: (§2) The MIC values were determined by the agar-dilution method, and are recorded in Table 15, which follows.
# [22] = test system: Peptococcus prevoti; assay: agar-dilution MIC; format: cell-based; conditions: Table 15
# Method: as §2
# [23] = electrometric titration; format: physicochemical; conditions: electrometric titration in 66% dimethylformamide in water
# Source text: Antibiotic A41030 factor A is a white, crystalline solid.
compound,measurement,setting,value
N[C@H]1C(=O)N[C@@H]2Cc3ccc(c(Cl)c3)Oc3cc4cc(c3O)Oc3ccc(cc3Cl)[C@@H](O)[C@@H]3NC(=O)C(NC(=O)[C@@H]4NC(=O)[C@@H](NC2=O)c2cc(O)cc(c2)Oc2cc1ccc2O)c1ccc(O)c(c1)-c1c(O)cc(O)cc1[C@@H](C(=O)O)NC3=O [A41030 factor B],MIC,[1],4 µg/mL
same,solubility (solvents),[2],soluble in the same solvents as factor A
same,MIC,"[3]; Haemophilus influenzae 76, end point after 24 hours, Table 18",4 µg/mL
same,MIC,"[3]; Haemophilus influenzae 251, Table 17",2 µg/mL
same,MIC,"[3]; Haemophilus influenzae 312, end point after 24 hours, Table 18",4 µg/mL
same,MIC,"[3]; Haemophilus influenzae 4842, end point after 24 hours, Table 18",4 µg/mL
same,MIC,"[3]; Haemophilus influenzae 16836, end point after 24 hours, Table 18",4 µg/mL
same,MIC,"[3]; Haemophilus influenzae Bond, end point after 24 hours, Table 18",4 µg/mL
same,MIC,"[3]; Haemophilus influenzae Brun, Table 17",8 µg/mL
same,MIC,"[3]; Haemophilus influenzae C.L., end point after 24 hours, Table 18",8 µg/mL
same,MIC,"[3]; Haemophilus influenzae Mx366, end point after 24 hours, Table 18",4 µg/mL
same,MIC,"[3]; Haemophilus influenzae Mx371, end point after 24 hours, Table 18",4 µg/mL
same,MIC,[4],0.5 µg/mL
same,MIC,"[5]; B. thetaiotaomicron 1438, 24-hour, Table 12",32 µg/mL
same,MIC,"[5]; Bacteroides thetaiotaomicron 1438, Table 14",32 µg/mL
same,MIC,"[6]; Peptostreptococcus intermedius 1264, Table 14",0.5 µg/mL
same,MIC,"[6]; Ps. intermedius 1264, Table 15",≤ 0.03 µg/mL
same,MIC,"[6]; Ps. intermedius 1524, Table 15",0.25 µg/mL
same,MIC,"[6]; Ps. intermedius 1624, Table 15",0.5 µg/mL
same,MIC,[7],4 µg/mL
same,MIC,"[8]; Staphylococcus aureus 3055, end point after 24 hours, Table 18",0.06 µg/mL
same,MIC,"[8]; Staphylococcus aureus V138, end point after 24 hours, Table 18",0.06 µg/mL
same,MIC,[8]; in µg/mL,0.25
same,MIC,"[9]; Streptococcus sp. Group D 2041, end point after 24 hours, Table 18",0.5 µg/mL
same,MIC,"[9]; Streptococcus sp. Group D 2058, end point after 24 hours, Table 18",0.5 µg/mL
same,MIC,"[9]; Streptococcus sp. Group D 8043, end point after 24 hours, Table 18",0.25 µg/mL
same,MIC,"[9]; Streptococcus sp. Group D 9901, end point after 24 hours, Table 18",1 µg/mL
same,MIC,"[9]; Streptococcus sp. Group D 9960, Table 17",1 µg/mL
same,MIC,"[9]; Streptococcus sp. Group D 9960, end point after 24 hours, Table 18",0.5 µg/mL
same,MIC,"[9]; Streptococcus sp. Group D 12253F, end point after 24 hours, Table 18",0.5 µg/mL
same,MIC,"[9]; Streptococcus sp. Group D Mx161, end point after 24 hours, Table 18",0.25 µg/mL
same,MIC,"[9]; Streptococcus sp. Group D X66, Table 17",1 µg/mL
same,MIC,"[9]; Streptococcus sp. Group D X66, end point after 24 hours, Table 18",0.25 µg/mL
same,MIC,[10],0.25 µg/mL
same,MIC,"[11]; Staphylococcus epidermidis 219, end point after 24 hours, Table 18",0.03 µg/mL
same,MIC,"[11]; Staphylococcus epidermidis 269, end point after 24 hours, Table 18",0.03 µg/mL
same,MIC,"[11]; Staphylococcus epidermidis 270, end point after 24 hours, Table 18",0.06 µg/mL
same,MIC,"[11]; Staphylococcus epidermidis 285, end point after 24 hours, Table 18",0.03 µg/mL
same,MIC,"[11]; Staphylococcus epidermidis EPI2, Table 17",0.5 µg/mL
same,MIC,"[12]; Streptococcus pneumoniae B1-438, end point after 24 hours, Table 18",0.5 µg/mL
same,MIC,"[12]; Streptococcus pneumoniae Park I, Table 17",0.5 µg/mL
same,MIC,"[13]; B. fragilis 2, 24-hour, Table 12",32 µg/mL
same,MIC,"[13]; B. fragilis 9, 24-hour, Table 12",32 µg/mL
same,MIC,"[13]; B. fragilis 103, 24-hour, Table 12",32 µg/mL
same,MIC,"[13]; B. fragilis 104, 24-hour, Table 12",32 µg/mL
same,MIC,"[13]; B. fragilis 106, 24-hour, Table 12",32 µg/mL
same,MIC,"[13]; B. fragilis 107, 24-hour, Table 12",32 µg/mL
same,MIC,"[13]; B. fragilis 108, 24-hour, Table 12",32 µg/mL
same,MIC,"[13]; B. fragilis 110, 24-hour, Table 12",64 µg/mL
same,MIC,"[13]; B. fragilis 111, 24-hour, Table 12",32 µg/mL
same,MIC,"[13]; B. fragilis 112, 24-hour, Table 12",32 µg/mL
same,MIC,"[13]; B. fragilis 113, 24-hour, Table 12",32 µg/mL
same,MIC,"[13]; B. fragilis 1451, 24-hour, Table 12",64 µg/mL
same,MIC,"[13]; B. fragilis 1470, 24-hour, Table 12",64 µg/mL
same,MIC,"[13]; B. fragilis 1877, 24-hour, Table 12",32 µg/mL
same,MIC,"[13]; B. fragilis 9032, 24-hour, Table 12",32 µg/mL
same,MIC,"[13]; Bacteroides fragilis 111, Table 14",64 µg/mL
same,MIC,"[13]; Bacteroides fragilis 1877, Table 14",32 µg/mL
same,MIC,"[13]; Bacteroides fragilis 1936B, Table 14",32 µg/mL
same,MIC,"[14]; Pc. prevoti 1281, Table 15",0.5 µg/mL
same,MIC,"[14]; Peptococcus prevoti 1281, Table 14",≤ 0.25 µg/mL
same,MIC,[15],32 µg/mL
same,ED50,"[16]; S. pyogenes infection in mice, two doses subcutaneously",1.4 mg/kg
same,in vivo oral activity,"[16]; against S. pyogenes in mice, oral",> 300 mg./kg. X 2
same,ED50,[17],< 0.43 mg/kg
same,MIC,[18],64 µg/mL
same,MIC,"[19]; Clostridium difficile 78, Table 16",0.5 µg/mL
same,MIC,"[19]; Clostridium difficile 107B, Table 16",0.5 µg/mL
same,MIC,"[19]; Clostridium difficile 111F, Table 16",1.0 µg/mL
same,MIC,"[19]; Clostridium difficile 1153, Table 16",1.0 µg/mL
same,MIC,"[19]; Clostridium difficile 2634, Table 16",1.0 µg/mL
same,MIC,"[19]; Clostridium difficile 2994, Table 14",32 µg/mL
same,MIC,"[19]; Clostridium difficile 3424-5B, Table 16",1.0 µg/mL
same,MIC,"[19]; Clostridium difficile 3816, Table 16",1.0 µg/mL
same,MIC,"[19]; Clostridium difficile 3950D, Table 16",1.0 µg/mL
same,MIC,"[19]; Clostridium difficile 6890, Table 16",1.0 µg/mL
same,MIC,"[19]; Clostridium difficile 8484, Table 16",1.0 µg/mL
same,MIC,"[19]; Clostridium difficile A-194, Table 16",1.0 µg/mL
same,MIC,"[19]; Clostridium difficile A-195, Table 16",1.0 µg/mL
same,MIC,"[19]; Clostridium difficile A-196, Table 16",1.0 µg/mL
same,MIC,"[19]; Clostridium difficile A-279, Table 16",1.0 µg/mL
same,MIC,"[19]; Clostridium difficile A-280, Table 16",0.5 µg/mL
same,MIC,"[19]; Clostridium difficile A-281, Table 16",1.0 µg/mL
same,MIC,"[19]; Clostridium difficile WAL-2112, Table 16",1.0 µg/mL
same,MIC,"[19]; Clostridium difficile WAL-3657, Table 16",1.0 µg/mL
same,MIC,"[19]; Clostridium difficile WAL-4268, Table 16",0.5 µg/mL
same,MIC,[20],8 µg/mL
same,MIC,[21],0.25 µg/mL
same,MIC,[22]; Pc. prevoti 1293,0.25 µg/mL
same,MIC,[22]; Pc. prevoti 1407,0.5 µg/mL
same,possibly additional pKa's,[23],> 10
